The text below walks through data of US5246947A, “Substituted pyridinylamino-1,2-benzisothiazoles and their use for treating depression” (Hoechst-Roussel Pharmaceuticals Incorporated, priority 1992, dated 1993).

Experiment [1] concerns the target T1, α2-Receptor (Rattus norvegicus, UniProt P22909).
T1 construct: the cortical tissue rapidly dissected; from tissue; host or cells: cortical tissue of male Wistar rats, washed membrane suspension
T1 sequence (P22909 1-465): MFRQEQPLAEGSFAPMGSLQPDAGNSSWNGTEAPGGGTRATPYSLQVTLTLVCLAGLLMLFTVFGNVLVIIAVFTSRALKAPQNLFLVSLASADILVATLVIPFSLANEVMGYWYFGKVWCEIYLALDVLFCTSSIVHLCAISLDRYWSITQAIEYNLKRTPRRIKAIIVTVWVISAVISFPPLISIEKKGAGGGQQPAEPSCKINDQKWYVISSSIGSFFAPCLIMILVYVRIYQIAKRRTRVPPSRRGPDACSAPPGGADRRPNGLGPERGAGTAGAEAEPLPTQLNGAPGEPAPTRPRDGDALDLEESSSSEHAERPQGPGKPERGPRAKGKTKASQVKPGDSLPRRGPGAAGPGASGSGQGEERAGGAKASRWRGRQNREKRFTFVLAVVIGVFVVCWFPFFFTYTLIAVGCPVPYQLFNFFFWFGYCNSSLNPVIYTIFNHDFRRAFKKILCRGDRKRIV
The experiment can be described thus: [^3 H]-Clonidine Binding: α2-Receptor. The arrangement: species or system rat (male Wistar).
Protocol: [^3 H]-Clonidine Binding: α2 -Receptor
The purpose of this assay is to assess the interaction of compounds with central α2 -receptors.
a. 57.2 g Tris HCl 16.2 Tris Base-bring to 1 liter (0.5M Tris buffer, pH 7.7) b. Make a 1:10 dilution in distilled H2 O (0.05M Tris buffer, pH 7.7)
Tris buffer containing physiological ions b. Dilute 1:10 in distilled H2 O. This yields 0.05 M Tris HCl, pH 7.7; containing NaCl (120 mM), KCl (5 mM), CaCl2 (2 mM) and MgCl2 (1 mM) 3. [4-^3 H]-Clonidine hydrochloride (20-30 Ci/mmol) is obtained from New England Nuclear.
Clonidine-HCl is obtained from Boehringer Ingelheim. A stock solution of 0.1 mM clonidine is made up to determine nonspecific binding. This yields a final concentration of 1 μM in the assay (20 μl to 2 ml).
Male Wistar rats are sacrified by decapitation and the cortical tissue rapidly dissected. The tissue is homogenized in 50 volumes of 0.05M Tris buffer, pH 7.7 (buffer 1b) with the Brinkman Polytron, then centrifuged at 40,000 g for 15 minutes. […]
Tissue homogenates are incubated for 20 minutes at 25° C. with 3 nM [^3 H]-clonidine and varying drug concentrations, then immediately filtered under reduced pressure on Whatman GF/B filters. […] Ten ml of liquiscint counting solution is added to each sample which is then counted by liquid scintillation spectroscopy. […] IC50 values are calculated using log-probit analysis.

The subject of experiment [2] is TPA-induced ear edema. The experiment can be described thus: TPA-Induced Ear Edema (TPAEE). It is filed as in vivo, mouse (female Swiss Webster). Conditions: topical, ear plug weight after about 5 hours, Table 3. As to the method: The dermatological activity of the compounds was ascertained according to the following method.
TPA-Induced Ear Edema (TPAEE)
The purpose of this assay was to determine the ability of a topically applied compound to prevent ear edema induced by topical application of TPA (phorbol 12-myristate acetate). Female Swiss Webster mice topically received TPA (10 μg/ear) on the right ear and vehicle on the left ear. […] After about 5 hours, the animals are sacrificed and a 4 mm diameter plug is taken from each ear and weighed. The difference between the right and left ear plug weights for each animal was determined. The antiinflammatory activity of the test compound is expressed as the mean percent change in ear plug weight of the treated animals compared to the mean percent change in the plug weight of the control animals. (Young, J. M. et al., J. Invest. Dermatol., 80 (1983), pp. 48-52.)

In experiment [3] the target is T2, Brain AChE (acetylcholinesterase) (Rattus norvegicus, UniProt P37136).
T2 construct: corpora striata dissected free, weighed and homogenized in 19 volumes; from tissue; host or cells: corpora striata of male Wistar rats, whole homogenate
Briefly: biochemical. The arrangement: species or system rat (male Wistar). Conditions: rat striatum; 5 mM acetylthiocholine final; pH 7.2; Table 1; read-out: Inhibitory Concentration Brain AChE. The text has this: Cholinesterases are found throughout the body, both in the brain and in serum. However, only brain acetylcholinesterase (AChE) distribution is correlated with central cholinergic innervation. […] We have determined in vitro inhibition of acetylcholinesterase activity in rat striatum according to the method described below.
In Vitro Inhibition of Acetylcholinesterase Activity in Rat Striatum
The method described below was used in this invention for assaying anticholinesterase activity. This is a modification of the method of Ellman et al., Biochem. Pharmacol. 7, 88 (1961).
1. 0.05M Phosphate buffer, pH 7.2
(c) add (a) to (b) until pH reaches 7.2
4. A 2 mM stock solution of the test drug is made up in a suitable solvent and brought to volume with 0.5 mM DTNB (reagent 3). Drugs are serially diluted (1:10) such that the final concentration (in cuvette) is 10^-4 M and screened for activity. If active, IC50 values are determined from the inhibitory activity of subsequent concentrations.
Enzyme activity is measured with the Beckman DU-50 spectrophotometer. This method can be used for IC50 determinations and for measuring kinetic constants.
Reagents are added to the blank and sample cuvettes as follows:
This program also calculates the rate of absorbance change for each cuvette.
Substrate concentration is 10 mM diluted 1:2 in assay yielding final concentration of 5 mM.

Experiment [4] relates to serotonin (5-hydroxytryptamine, 5HT) uptake. The experiment can be described thus: [^3 H]-Serotonin Uptake in Rat Whole Brain and Hypothalamic Synaptosomes. In kind it is biochemical, rat (male CR Wistar). The note with it: [^3 H]-5HT 50 nM, 37° C., 5 min, Table 2. As to the method:
[^3 H]-Serotonin Uptake in Rat Whole Brain and Hypothalamic Synaptosomes
This activity is determined in an assay which measures [^3 H]-serotoninuptake in rat whole brain and hypothalamic synaptosomes.
Male CR Wistar rats (100-125 g)
Prepare a 1 liter batch containing the following salts.
3. A 0.1 mM stock solution of serotonin creatinine SO4 is made up in 0.01N HCl. This is used to dilute the specific activity of the radiolabeled 5HT.
4. 5-[1,2-^3 H(N)]-Hydroxytryptamine creatinine sulfate (serotonin), specific activity 20-30 Ci/mmol, is used.
The final desired concentration of [^3 H]-5HT in the assay is 50 nM. The dilution factor is 0.8. The KHBB is made up to contain 62.5 nM of [^3 H]-5HT.
5. For most assays, a 1 mM stock solution of the test compound is made up in a suitable solvent and serially diluted such that the final concentration in the assay ranges from 2×10^-8 to 2×10^-5 M. Seven concentrations are used for each assay.
Male Wistar rats are decapitated and the brain rapidly removed.
Tubes are incubated at 37° C. under a 95% O2 /5% CO2 atmosphere for 5 minutes. For each assay, 3 tubes are incubated with 20 μl of vehicle at 0° C. in an ice bath. After incubation all tubes are immediately centrifuged at 4000 g for 10 minutes. […] The tubes are vigorously vortexted, decanted into scintillation vials, and counted in 10 ml of Liquiscint scintillation counting cocktail. […]

Experiment [5] deals with norepinephrine (NE) uptake. Briefly: [^3 H]-Norepinephrine Uptake in Rat Whole Brain Synaptosomes. In kind it is biochemical, rat (male CR Wistar). The note with it: [^3 H]-NE 50 nM, 37° C., 5 min, Table 2.

Each structure is given as a SMILES string. Structures can show the parent of a compound that is named as a salt. Where two headings read alike, the source gives them in different places.

T2 sequence (P37136 32-614): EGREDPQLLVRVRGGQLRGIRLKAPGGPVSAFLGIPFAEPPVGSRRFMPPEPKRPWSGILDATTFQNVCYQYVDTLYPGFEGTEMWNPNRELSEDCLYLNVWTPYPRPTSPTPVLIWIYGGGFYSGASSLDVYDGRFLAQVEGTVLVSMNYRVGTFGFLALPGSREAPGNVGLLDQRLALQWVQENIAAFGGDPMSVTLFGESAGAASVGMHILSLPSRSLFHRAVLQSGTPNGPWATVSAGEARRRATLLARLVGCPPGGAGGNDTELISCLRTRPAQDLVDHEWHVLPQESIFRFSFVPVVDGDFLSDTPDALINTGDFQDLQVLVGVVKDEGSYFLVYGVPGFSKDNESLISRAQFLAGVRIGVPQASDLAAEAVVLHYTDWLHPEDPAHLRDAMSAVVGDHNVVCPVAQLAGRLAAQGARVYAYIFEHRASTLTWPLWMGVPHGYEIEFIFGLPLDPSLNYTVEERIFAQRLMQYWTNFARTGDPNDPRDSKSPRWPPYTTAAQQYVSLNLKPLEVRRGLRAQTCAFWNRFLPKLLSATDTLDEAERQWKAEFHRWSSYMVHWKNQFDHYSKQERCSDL

Regarding `Cn1ccc2cc(Nc3ccncc3)ccc21` [1-Methyl-5-(4-pyridinylamino)-1H-indole], the IC50 in experiment [1] is 0.012 µM. The “Edema Reduction” value in experiment [2] (10 μg/ear) is -67%.

Turning to `CCCN(c1ccncc1)c1ccc2c(ccn2C)c1` [1-Methyl-5-(propyl-4-pyridinylamino)-1H-indole maleate], the IC50 was 31.9 µM in experiment [3]; 0.76 µM in experiment [4]; 34 nM in experiment [5]; 0.33 µM in experiment [1] (rat cortical tissue, 3 nM [^3 H]-clonidine, 25° C., 20 min, Table 2, read-out: [^3 H]-Clonidine Binding IC50).

`CN(C)CCC=C1c2ccccc2CCc2ccccc21` [Amitriptyline]: the IC50 in experiment [5] came out at 7700 nM.

Consider `COc1ccc2c(c1)c(CC(=O)O)c(C)n2C(=O)c1ccc(Cl)cc1` [Indomethacin, reference compound], for which the “Edema Reduction” value in experiment [2] (at 1 mg/ear) is on record as -86%.

In experiment [5], `CNCCC=C1c2ccccc2CCc2ccccc21` [Notriptyline] displayed an IC50 of 4000 nM.
